Measurements: paper PMC12466757, “1,5-Diarylidene-4-Piperidones as Promising Antifungal Candidates Against Cryptococcus neoformans” (Antibiotics, 2025)
≈ marks a conversion by molar mass, not a printed value.

How the values were obtained:
[1] = tested on: Cryptococcus neoformans (DSM11959); test: MIC assay against C. neoformans; assay type: cell-based; settings: lowest concentration totally inhibiting growth, 35 °C, 24–48 h
in vitro [2] = settings: human, Caco-2
[3] = tested on: various human cells, i.e., A498, BEAS-2B, Caco-2, HaCaT, and HepG2
[4] = tested on: Candida auris (DSM 21092); test: MIC assay, pathogenic yeast C. auris; assay type: cell-based; settings: Candidozyma auris, DSM21092, 35 °C, 24–48 h
[5] = tested on: Colletotrichum graminicola (DSM 63127); test: MIC assay, filamentous fungus C. graminicola; assay type: cell-based; settings: DSM63127, DSM 63127, plant pathogen, 25 °C, 48–72 h
[6] = tested on: Trichophyton rubrum (DSM16111); test: MIC assay, filamentous fungus T. rubrum; assay type: cell-based; settings: DSM16111, human pathogen, 35 °C, 24–48 h
[7] = tested on: Candida glabrata (DSM 11226); test: MIC assay, pathogenic yeast C. glabrata; assay type: cell-based; settings: Nakaseomyces glabratus, DSM11226, 35 °C, 24–48 h
[8] = tested on: Microdochium bolleyi (DSM 62073); test: MIC assay, filamentous fungus M. bolleyi; assay type: cell-based; settings: 48–72 h
[9] = tested on: Aspergillus flavus (DSM 1959); test: MIC assay, filamentous fungus A. flavus; assay type: cell-based; settings: DSM1959, DSM 1959, plant pathogen, 25 °C, 48–72 h
[10] = tested on: Penicillium verrucosum (DSM 12639); test: MIC assay, filamentous fungus P. verrucosum; assay type: cell-based; settings: DSM12639, DSM 12639, plant pathogen, 25 °C, 48–72 h
[11] = tested on: Fusarium graminearum (DSM 1095); test: microbe, parasite or virus in culture; assay type: cell-based; settings: DSM1095, read-out: MIC F. graminearum
[12] = tested on: Candida tropicalis (DSM 9419); test: MIC assay, pathogenic yeast C. tropicalis; assay type: cell-based; settings: DSM9419, 35 °C, 24–48 h
Magnaporthe oryzae = test: microbe, parasite or virus in culture; assay type: cell-based; settings: Pyricularia oryzae, read-out: MIC M. oryzae
A. fumigatus (DSM 819) = test: MIC assay, filamentous fungus A. fumigatus; assay type: cell-based; settings: Aspergillus fumigatus, DSM819; DSM 819, human pathogen; 35 °C, 24–48 h
[13] = tested on: Candida albicans (DSM 10697); test: MIC assay, pathogenic yeast C. albicans; assay type: cell-based; settings: DSM10697, 35 °C, 24–48 h
[14] = tested on: Staphylococcus aureus (ATCC 6538); test: Antibacterial liquid MIC determination, S. aureus; assay type: cell-based; settings: ATCC6538, Gram-positive
in vitro [15] = settings: human
in vitro [16] = settings: human; remark: listed apart in the source
in vitro [17] = settings: human; remark: listed apart in the source
in vitro [18] = settings: human; remark: listed apart in the source
in vitro [19] = settings: human; remark: listed apart in the source
[20] = Cytotoxicity, resazurin cell viability assay, HepG2; settings: human, HepG2 liver cells
[21] = Cytotoxicity, resazurin cell viability assay, BEAS-2B; settings: human, BEAS-2B airway epithelial cells
[22] = Cytotoxicity, resazurin cell viability assay, Caco-2; settings: human
[23] = Cytotoxicity, resazurin cell viability assay, HaCaT; settings: human, HaCaT skin cells
[24] = Cytotoxicity, resazurin cell viability assay, A498; settings: human, A498 kidney cells
[25] = Cryptococcus neoformans, DSM11959, C. neoformans DSM 11959
[26] = DSM62073, DSM 62073, plant pathogen, 25 °C

Structure (SMILES): CCCCOc1ccc(/C=C2/C(=O)/C(=C/c3ccc(OCCCC)cc3OCCCC)C3CCC2N3C)c(OCCCC)c1 [2n]
- MIC [1, 25]: > 250 µM

Structure (SMILES): CCCCOc1ccc(/C=C2\CN(Cc3ccccc3)C/C(=C\c3ccc(OCCCC)cc3)C2=O)cc1 [2o]
- CC50 at 48 h (in vitro [2]): 455 µM
- MIC [1, 25]: 125 µM (≈ 63.7 µg/mL)
- CC50 (range depending on the cell model) [3]: 64.9 to >1000

Structure (SMILES): COc1ccc(/C=C2\CN(Cc3ccccc3)C/C(=C\c3ccc(OC)cc3OC)C2=O)c(OC)c1 [3a]
- MIC ([1]; C. neoformans DSM 11959): >250 µM
- MIC [1, 25]: > 250 µM

Structure (SMILES): CCCCOc1ccc(/C=C2\CN(Cc3ccccc3)C/C(=C\c3ccc(OCCCC)cc3OCCCC)C2=O)c(OCCCC)c1 [3h]
- MIC [4]: 7.8 µM (≈ 5.1 µg/mL)
- MIC [5]: 250 µM (≈ 163 µg/mL)
- MIC [6]: 7.8 µM (≈ 5.1 µg/mL)
- CC50 at 48 h (in vitro [2]): 629 µM
- MIC [1, 25]: 7.8 µM (≈ 5.1 µg/mL)
- MIC [7]: 7.8 µM (≈ 5.1 µg/mL)
- MIC ([8]; DSM62073, 25 °C): 7.8 µM (≈ 5.1 µg/mL)
- MIC [8, 26]: 31.2 µM (≈ 20.4 µg/mL)
- MIC [9]: 31.2 µM (≈ 20.4 µg/mL)
- MIC [10]: 62.5 µM (≈ 40.9 µg/mL)
- MIC [11]: 125 µM (≈ 81.7 µg/mL)
- MIC [12]: 125 µM (≈ 81.7 µg/mL)
- MIC (Magnaporthe oryzae): 7.8 µM (≈ 5.1 µg/mL)
- MIC (A. fumigatus (DSM 819)): 31.2 µM (≈ 20.4 µg/mL)
- MIC [13]: 62.5 µM (≈ 40.9 µg/mL)

Structure (SMILES): CCCCOc1ccc(/C=C2\CN(Cc3ccccc3)C/C(=C\c3ccc(OCCCC)c(OCCCC)c3)C2=O)cc1OCCCC [3iso-h]
- MIC [4]: 31.2 µM (≈ 20.4 µg/mL)
- MIC [5]: 125 µM (≈ 81.7 µg/mL)
- MIC [6]: 125 µM (≈ 81.7 µg/mL)
- CC50 at 48 h (in vitro [2]): > 1000 µM
- MIC [1, 25]: 62.5 µM (≈ 40.9 µg/mL)
- MIC [7]: 62.5 µM (≈ 40.9 µg/mL)
- MIC [8, 26]: 62.5 µM (≈ 40.9 µg/mL)
- MIC [9]: > 250 µM
- MIC [10]: 125 µM (≈ 81.7 µg/mL)
- MIC [11]: > 250 µM
- MIC [12]: 125 µM (≈ 81.7 µg/mL)
- MIC (Magnaporthe oryzae): 15.6 µM (≈ 10.2 µg/mL)
- MIC (A. fumigatus (DSM 819)): 125 µM (≈ 81.7 µg/mL)
- MIC [13]: 250 µM (≈ 163 µg/mL)

Structure (SMILES): O=C1/C(=C/c2ccc[nH]2)CN(Cc2ccccc2)C/C1=C\c1ccc[nH]1 [3j]
- CC50 at 48 h (in vitro [2]): 26.1 µM
- MIC [1, 25]: 62.5 µM (≈ 21.5 µg/mL)
- MIC [14]: 250 µM (≈ 85.9 µg/mL)

Structure (SMILES): CCCCOc1ccc(/C=C2\CN(C3CC3)C/C(=C\c3ccc(OCCCC)cc3OCCCC)C2=O)c(OCCCC)c1 [4h]
- CC50 at 48 h (in vitro [15]): > 1000 µM
- CC50 at 48 h (in vitro [16]): > 1000 µM
- CC50 at 48 h (in vitro [17]): > 1000 µM
- CC50 at 48 h (in vitro [2]): > 1000 µM
- MIC [1, 25]: 250 µM (≈ 151 µg/mL)
- CC50 at 48 h (in vitro [18]): > 1000 µM
- CC50 at 48 h (in vitro [19]): > 1000 µM

Structure (SMILES): CCCCOc1ccc(/C=C2\CN(C(=O)OC(C)(C)C)C/C(=C\c3ccc(OCCCC)cc3OCCCC)C2=O)c(OCCCC)c1 [5h]
- MIC ([1]; C. neoformans DSM 11959): >250 µM
- MIC [1, 25]: > 250 µM

Structure (SMILES): CCCCOc1ccc(/C=C2\CN(S(C)(=O)=O)C/C(=C\c3ccc(OCCCC)cc3OCCCC)C2=O)c(OCCCC)c1 [6h]
- MIC ([1]; C. neoformans DSM 11959): >250 µM
- MIC [1, 25]: > 250 µM

Structure (SMILES): CCCCOc1ccc(/C=C2\CN(C(=O)OCc3ccccc3)C/C(=C\c3ccc(OCCCC)cc3OCCCC)C2=O)c(OCCCC)c1 [7h]
- MIC ([1]; C. neoformans DSM 11959): >250 µM
- MIC [1, 25]: > 250 µM

Structure (SMILES): CCCCOc1ccc(/C=C2\CCC/C(=C\c3ccc(OCCCC)cc3OCCCC)C2=O)c(OCCCC)c1 [8h]
- MIC ([1]; C. neoformans DSM 11959): >250 µM
- MIC [1, 25]: > 250 µM

Structure (SMILES): CCCCOc1ccc(/C=C2\CC(C)C/C(=C\c3ccc(OCCCC)cc3OCCCC)C2=O)c(OCCCC)c1 (centres unmarked) [9h]
- MIC [1, 25]: > 250 µM

Structure (SMILES): CCCCOc1ccc(/C=C2\CC(C(C)(C)C)C/C(=C\c3ccc(OCCCC)cc3OCCCC)C2=O)c(OCCCC)c1 (centres unmarked) [10h]
- MIC [1, 25]: > 250 µM

Structure (SMILES): OC(Cn1cncn1)(Cn1cncn1)c1ccc(F)cc1F [Fluconazole, reference compound]
- MIC [4]: 500 µM (≈ 153 µg/mL)
- MIC [5]: 50 µM (≈ 15.3 µg/mL)
- MIC [6]: > 1000 µM
- MIC [1, 25]: 25 µM (≈ 7.66 µg/mL)
- MIC [7]: 250 µM (≈ 76.6 µg/mL)
- MIC [8, 26]: > 1000 µM
- MIC [9]: > 1000 µM
- MIC [10]: > 1000 µM
- MIC [11]: > 1000 µM
- MIC [12]: 1000 µM (≈ 306 µg/mL)
- CC50 at 48 h [20]: > 1000 µM
- MIC (Magnaporthe oryzae): 12.5 µM (≈ 3.83 µg/mL)
- CC50 at 48 h [21]: 942 µM
- CC50 (range depending on the cell model) [3]: 841.2 to >1000
- MIC (A. fumigatus (DSM 819)): > 1000 µM
- CC50 at 48 h [22]: 977 µM
- MIC [13]: 6.25 µM (≈ 1.91 µg/mL)
- CC50 at 48 h [23]: 841 µM
- CC50 at 48 h [24]: 994 µM
